Numbers after ± are expanded uncertainties.
Assays:
[1] = 298.15 K; 101.33 kPa; Liquid; Vibrating tube method
[2] = excess molar enthalpy (molar enthalpy of mixing); xn = mol fraction of the nth substance listed; details: 298.15 K, 101.33 kPa, Liquid, Flow calorimetry

SMILES: COC(C)(C)C [2-methoxy-2-methylpropane]
- mass density [1]: 735.69 ± 0.4 kg/m3

SMILES: CCC(C)CC [3-methylpentane]
- mass density [1]: 660.3 ± 0.41 kg/m3

SMILES: CCC(C)CC [3-methylpentane] + COC(C)(C)C
- excess molar enthalpy ([2]; x2 = 0.0499): 0.0137 ± 0.000382 kcal/mol
- excess molar enthalpy ([2]; x2 = 0.0999): 0.0259 ± 0.000502 kcal/mol
- excess molar enthalpy ([2]; x2 = 0.1501): 0.0382 ± 0.000621 kcal/mol
- excess molar enthalpy ([2]; x2 = 0.2): 0.0482 ± 0.000717 kcal/mol
- excess molar enthalpy ([2]; x2 = 0.2495): 0.0559 ± 0.000789 kcal/mol
- excess molar enthalpy ([2]; x2 = 0.3004): 0.0629 ± 0.00086 kcal/mol
- excess molar enthalpy ([2]; x2 = 0.3502): 0.0683 ± 0.000932 kcal/mol
- excess molar enthalpy ([2]; x2 = 0.3999): 0.072 ± 0.000956 kcal/mol
- excess molar enthalpy ([2]; x2 = 0.4505): 0.0745 ± 0.00098 kcal/mol
- excess molar enthalpy ([2]; x2 = 0.4997): 0.0752 ± 0.001 kcal/mol
- excess molar enthalpy ([2]; x2 = 0.55): 0.0741 ± 0.00098 kcal/mol
- excess molar enthalpy ([2]; x2 = 0.5996): 0.0717 ± 0.000956 kcal/mol
- excess molar enthalpy ([2]; x2 = 0.6502): 0.0684 ± 0.000932 kcal/mol
- excess molar enthalpy ([2]; x2 = 0.7003): 0.063 ± 0.00086 kcal/mol
- excess molar enthalpy ([2]; x2 = 0.75): 0.0561 ± 0.000813 kcal/mol
- excess molar enthalpy ([2]; x2 = 0.7999): 0.0476 ± 0.000717 kcal/mol
- excess molar enthalpy ([2]; x2 = 0.8501): 0.0377 ± 0.000621 kcal/mol
- excess molar enthalpy ([2]; x2 = 0.8999): 0.0263 ± 0.000502 kcal/mol
- excess molar enthalpy ([2]; x2 = 0.95): 0.0128 ± 0.000359 kcal/mol

SMILES: CCCCCCCCCC [decane]
- mass density [1]: 726.31 ± 0.42 kg/m3

SMILES: CCCCCCCCCCCC [dodecane]
- mass density [1]: 745.38 ± 0.42 kg/m3

Reference: the NIST ThermoML archive (doi:10.1016/j.tca.2004.12.026)
